In article PMC2909451 (European journal of pharmaceutical sciences : official …, 2010):
Structures can show the parent of a compound that is named as a salt. Where two headings read alike, the source gives them in different places.

Assays:
[1] = biological target: T1, excitatory amino acid transporters (SLC1A6, EAAT4) (Rattus norvegicus, UniProt O35921); assay: EAAT4 cis-inhibition of glutamate uptake in stably transfected HEK 293 cells; format: cell-based; details: for potency estimated from few doses: HEK293, read-out: Ki estimated from one concentration
T1 sequence (O35921 1-561): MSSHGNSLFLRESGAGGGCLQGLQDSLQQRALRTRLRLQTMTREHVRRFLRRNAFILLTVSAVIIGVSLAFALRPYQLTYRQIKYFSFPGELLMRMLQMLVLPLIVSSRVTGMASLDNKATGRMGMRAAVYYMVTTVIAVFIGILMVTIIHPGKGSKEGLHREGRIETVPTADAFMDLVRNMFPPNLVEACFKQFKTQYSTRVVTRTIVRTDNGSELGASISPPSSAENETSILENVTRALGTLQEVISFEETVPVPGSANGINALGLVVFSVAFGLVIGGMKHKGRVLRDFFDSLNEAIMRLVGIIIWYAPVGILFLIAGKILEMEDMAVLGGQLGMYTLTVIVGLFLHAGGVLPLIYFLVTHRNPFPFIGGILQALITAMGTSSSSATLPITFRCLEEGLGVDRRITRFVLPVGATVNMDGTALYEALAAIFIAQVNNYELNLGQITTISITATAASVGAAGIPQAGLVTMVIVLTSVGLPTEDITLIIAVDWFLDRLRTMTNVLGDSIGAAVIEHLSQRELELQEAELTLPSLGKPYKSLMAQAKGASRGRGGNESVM

[2] = biological target: T2, human organic cation/carnitine transporter (SLC22A5, OCTN2) (Homo sapiens, UniProt O76082); assay: OCTN2 cis-inhibition of L-carnitine uptake in OCTN2-MDCK cells; format: cell-based; details: for potency estimated from few doses: read-out: Ki estimated from one concentration
T2 sequence (O76082 1-557): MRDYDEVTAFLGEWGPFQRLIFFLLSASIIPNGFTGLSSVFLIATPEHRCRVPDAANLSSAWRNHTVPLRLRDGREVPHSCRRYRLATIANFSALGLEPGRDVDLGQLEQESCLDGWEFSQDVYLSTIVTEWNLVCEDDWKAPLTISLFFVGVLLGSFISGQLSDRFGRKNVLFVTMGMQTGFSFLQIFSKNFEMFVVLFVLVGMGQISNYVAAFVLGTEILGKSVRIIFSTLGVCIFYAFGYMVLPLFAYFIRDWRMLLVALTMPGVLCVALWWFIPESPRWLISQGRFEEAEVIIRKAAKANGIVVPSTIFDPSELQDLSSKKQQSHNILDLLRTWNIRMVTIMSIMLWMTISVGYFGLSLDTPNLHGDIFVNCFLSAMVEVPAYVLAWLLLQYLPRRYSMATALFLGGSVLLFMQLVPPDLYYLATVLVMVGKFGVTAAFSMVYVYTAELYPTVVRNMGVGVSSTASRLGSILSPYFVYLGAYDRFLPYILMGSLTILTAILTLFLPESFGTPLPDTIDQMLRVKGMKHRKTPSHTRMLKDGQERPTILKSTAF

[3] = biological target: T3, human apical sodium-dependent transporter (SLC10A2, ASBT) (Homo sapiens, UniProt Q12908); assay: ASBT cis-inhibition of taurocholate uptake in ASBT-MDCK cells; details: for potency estimated from few doses: read-out: Ki estimated from one concentration
T3 sequence (Q12908 1-348): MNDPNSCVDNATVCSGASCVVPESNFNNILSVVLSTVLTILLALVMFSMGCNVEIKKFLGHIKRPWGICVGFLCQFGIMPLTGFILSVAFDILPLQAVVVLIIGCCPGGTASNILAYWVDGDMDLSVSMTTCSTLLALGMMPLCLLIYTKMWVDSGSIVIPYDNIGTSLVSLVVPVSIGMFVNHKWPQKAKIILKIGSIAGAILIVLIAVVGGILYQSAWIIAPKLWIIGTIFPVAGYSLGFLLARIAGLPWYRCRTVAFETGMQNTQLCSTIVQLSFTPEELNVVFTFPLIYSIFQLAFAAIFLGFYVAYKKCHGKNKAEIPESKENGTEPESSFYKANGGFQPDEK

[4] = biological target: T3, human apical sodium-dependent transporter (SLC10A2, ASBT)
[5] = Precipitation / solubility of inhibitor in transport buffer; format: physicochemical; details: for precipitation / solubility in donor solution: ASBT inhibition study, 1-[…] DMSO for low water soluble compounds; for highest concentration at which no precipitation was observed: transport buffer of the ASBT inhibition study, precipitation observed above it
[6] = Ki, inhibitor concentration range 0-5 μM
[7] = Ki, inhibitor concentration range 0-10 μM
[8] = Ki, inhibitor concentration range 0-20 μM
[9] = Ki, inhibitor concentration range 0-50 μM
[10] = Ki, inhibitor concentration range 0-100 μM
[11] = Ki, inhibitor concentration range 0-200 μM
[12] = Reference Ki, from the comprehensive inhibition profile
[13] = Ki, inhibitor concentration range 0-[…]
[14] = Ki, inhibitor concentration range 0-500 μM
[15] = Ki, inhibitor concentration range 0-50 μM, mean±S.E.
[16] = Ki, inhibitor concentration range 0-100 μM, mean±S.E.
[17] = Ki, inhibitor concentration range 0-200 μM, mean±S.E.
[18] = Ki, inhibitor concentration range 0-500 μM, mean±S.E.
[19] = Ki, inhibitor concentration range 0-1000 μM, mean±S.E.
[20] = Ki, inhibitor concentrations 0, 25 μM (Table 2), mean±S.E.
[21] = read-out: percent taurocholate inhibited at the highest inhibitor concentration
[22] = Ki, inhibitor concentration range 0-10 μM, mean±S.E.
[23] = Ki, inhibitor concentration range 0-25 μM, mean±S.E.

## N[C@H](CC(=O)O)C(=O)O [D-Aspartic acid]
[1]
  potency estimated from few doses: 8.4 ± 0.81 µM
[1]; [6]
  Ki: 9.06 ± 1.51 µM
[1]; [7]
  Ki: 8.72 ± 0.76 µM
[1]; [8]
  Ki: 8.58 ± 0.59 µM
[1]; [9]
  Ki: 8.95 ± 0.57 µM
[1]; [10]
  Ki: 9.21 ± 0.57 µM
[1]; [11]
  Ki: 9.54 ± 0.75 µM
[1]; [12]
  Ki: 9.54 µM

## C[N+](C)(C)C[C@@H](O)CC(=O)[O-] [D-carnitine]
[2]; Ki, inhibitor concentration range 0-1 μM
  Ki: 8.9 ± 4 µM
[2]; [6]
  Ki: 10.2 ± 1.1 µM
[2]; [7]
  Ki: 11.5 ± 0.9 µM
[2]; [8]
  Ki: 11.8 ± 0.7 µM
[2]; [9]
  Ki: 12 ± 0.6 µM
[2]; [10]
  Ki: 12.1 ± 0.5 µM
[2]; [11]
  Ki: 12.2 ± 0.5 µM
[2]; [13]
  Ki: 9 ± 1.5 µM
[2]; [12]
  Ki: 12.2 µM
[2]
  potency estimated from few doses: 12.2 ± 0.5 µM

## COc1cccc2c1C(=O)c1c(O)c3c(c(O)c1C2=O)C[C@@](O)(C(C)=O)C[C@@H]3O[C@H]1C[C@H](N)[C@H](O)[C@H](C)O1 [Daunorubicin hydrochloride, daunorubicin hydrochloride]
[2]; [10]
  Ki: 424 ± 122 µM
[2]; [11]
  Ki: 375 ± 63 µM
[2]; [14]
  Ki: 443 ± 56 µM
[2]; Ki, inhibitor concentration range 0-1000 μM
  Ki: 484 ± 48 µM
[2]; Ki, inhibitor concentration range 0-1500 μM
  Ki: 496 ± 41 µM
[2]; [12]
  Ki: 496 µM
[2]
  potency estimated from few doses: 488 ± 47 µM

## N[C@@H](CC(=O)O)C(=O)O [L-Aspartic acid]
[1]
  potency estimated from few doses: 3.03 ± 0.3 µM
[1]; [6]
  Ki: 1.72 ± 0.14 µM
[1]; [7]
  Ki: 1.77 ± 0.12 µM
[1]; [8]
  Ki: 1.83 ± 0.14 µM
[1]; [9]
  Ki: 1.88 ± 0.18 µM
[1]; [10]
  Ki: 1.92 ± 0.23 µM
[1]; [13]
  Ki: 2.01 ± 0.13 µM
[1]; [12]
  Ki: 1.92 µM

## N=C(N)c1ccc(OCCCCCOc2ccc(C(=N)N)cc2)cc1 [Pentamidine Isethionate, pentamidine isethionate]
[3]; [15]
  Ki: 253 ± 126 µM
[3]; [16]
  Ki: 189 ± 40 µM
[3]; [17]
  Ki: 147 ± 23 µM
[3]; [18]
  Ki: 164 ± 20 µM
[3]; [19]
  Ki: 174 ± 19 µM
[3]; [20]
  Ki: 134 ± 82 µM
[3]; [12]
  Ki: 174 µM
[3]
  potency estimated from few doses: 194 ± 27 µM
[3]; [21]
  inhibition at 25 µM: 10.9%
  inhibition at 200 µM: 52.7%
  inhibition at 1000 µM: 74.4%
[4]; 50 µM
  inhibition: 10.7%
[4]; 100 µM
  inhibition: 27.9%
[4]; 500 µM
  inhibition: 62.8%

## O=C(O)C[C@H](O)C[C@H](O)/C=C/c1c(C2CC2)nc2ccccc2c1-c1ccc(F)cc1 [Pitavastatin]
[3]; Ki, inhibitor concentration range 0-5 μM, mean±S.E.
  Ki: 27.9 ± 7.3 µM
[3]; [22]
  Ki: 29.7 ± 5.9 µM
[3]; [23]
  Ki: 54.1 ± 10.9 µM
[3]; [15]
  Ki: 59.8 ± 7.5 µM
[3]; [16]
  Ki: 60.9 ± 5.3 µM
[3]; [17]
  Ki: 64.9 ± 4.8 µM
[3]; [18]
  Ki: 67.6 ± 4.8 µM
[3]; [12]
  Ki: 67.6 µM
[3]
  potency estimated from few doses: 56.1 ± 4.4 µM
[3]; [21]
  inhibition at 5 µM: 10.4%
  inhibition at 10 µM: 14.4%
  inhibition at 25 µM: 22.7%
  inhibition at 200 µM: 64.6%
[4]; 50 µM
  inhibition: 36.5%
[4]; 100 µM
  inhibition: 52.4%
[4]; 500 µM
  inhibition: 78.6%

## CC(C)c1nc(N(C)S(C)(=O)=O)nc(-c2ccc(F)cc2)c1/C=C/[C@@H](O)C[C@@H](O)CC(=O)O [Rosuvastatin]
[3]; [22]
  Ki: 46.7 ± 14.4 µM
[3]; [15]
  Ki: 148 ± 33 µM
[3]; [16]
  Ki: 118 ± 15 µM
[3]; [17]
  Ki: 115 ± 10 µM
[3]; [18]
  Ki: 117 ± 8 µM
[3]; Ki, inhibitor concentrations 0, 5 μM (Table 2), mean±S.E.
  Ki: 196 ± 423 µM
[3]; [20]
  Ki: 147 ± 67 µM
[3]; [12]
  Ki: 117 µM
[3]
  potency estimated from few doses: 123 ± 11 µM
[3]; [21]
  inhibition at 5 µM: 1.54%
  inhibition at 10 µM: 11.7%
  inhibition at 25 µM: 8.9%
  inhibition at 200 µM: 53.3%
[4]; 50 µM
  inhibition: 19.4%
[4]; 100 µM
  inhibition: 37.8%
[4]; 500 µM
  inhibition: 71%

## CN1CCN(CC/C=C2/c3ccccc3Sc3ccc(S(=O)(=O)N(C)C)cc32)CC1 [Thiothixene, thiothixene]
[3]; [17]
  Ki: 1030 ± 344 µM
[3]; [18]
  Ki: 913 ± 115 µM
[3]; [19]
  Ki: 1110 ± 136 µM
[3]; Ki, inhibitor concentration range 0-5000 μM, mean±S.E.
  Ki: 917 ± 111 µM
[3]; [12]
  Ki: 917 µM
[3]
  potency estimated from few doses: 905 ± 105 µM
[3]; [21]
  inhibition at 200 µM: 34.6%
  inhibition at 1000 µM: 11%
  inhibition at 5000 µM: 83.3%
[4]; 500 µM
  inhibition: 25.7%

## Clc1ccc(C(Cn2ccnc2)OCc2ccsc2Cl)c(Cl)c1 (centres unmarked) [Tioconazole, tioconazole]
[3]; [23]
  Ki: 32.3 ± 6.3 µM
[3]; [15]
  Ki: 32.7 ± 4.7 µM
[3]; [17]
  Ki: 33.7 ± 3.1 µM
[3]; [18]
  Ki: 33.6 ± 2.8 µM
[3]; [19]
  Ki: 34.1 ± 2.7 µM
[3]; [12]
  Ki: 34.1 µM
[3]; inhibitor concentration range 0-100 μM, mean±S.E.
  Ki: 32.8 ± 3.6 µM
[3]
  potency estimated from few doses: 33 ± 6.2 µM
[3]; [21]
  inhibition at 25 µM: 32.2%
  inhibition at 200 µM: 74%
  inhibition at 1000 µM: 87.2%
[4]; 50 µM
  inhibition: 47.7%
[4]; 100 µM
  inhibition: 63.7%
[4]; 500 µM
  inhibition: 87.1%

## CC[C@]1(O)C[C@H]2CN(CCc3c([nH]c4ccccc34)[C@@](C(=O)OC)(c3cc4c(cc3OC)N(C=O)[C@H]3[C@@](O)(C(=O)OC)[C@H](OC(C)=O)[C@]5(CC)C=CCN6CC[C@]43[C@@H]65)C2)C1 [Vincristine sulfate]
[2]; [7]
  Ki: 14.9 ± 2 µM
[2]; [8]
  Ki: 14.5 ± 1.2 µM
[2]; [9]
  Ki: 14.6 ± 1.5 µM
[2]; [10]
  Ki: 15.7 ± 1.6 µM
[2]; [11]
  Ki: 15.9 ± 1.5 µM
[2]; [14]
  Ki: 15.9 ± 1.4 µM
[2]; [12]
  Ki: 15.9 µM
[2]
  potency estimated from few doses: 14.7 ± 3.1 µM

## CCOC(=O)C1=C(C)NC(C)=C(C(=O)OC)C1c1cccc([N+](=O)[O-])c1 (centres unmarked) [nitrendipine]
[3]; [15]
  Ki: 43.9 µM
[5]
  precipitation / solubility in donor solution: incomplete solubility at higher drug concentrations
  highest concentration at which no precipitation was observed: 50 µM
[4]; 50 µM
  inhibition: 39.7%

## Cc1cccc(Nc2ccncc2S(=O)(=O)NC(=O)NC(C)C)c1 [torsemide]
[3]; [19]
  Ki: 460 µM
[3]; [21]
  inhibition at 1000 µM: 58.4%
[5]
  precipitation / solubility in donor solution: incomplete solubility at higher drug concentrations
  highest concentration at which no precipitation was observed: 1000 µM
